The results in this text go back to patent US20090030024A1, “THIAZOLES AS FUNGICIDES” (priority 2005, published 2009).

This series can be described thus: logP determination by retention times (calibration with alkan-2-ones). Particulars: * HPLC reversed-phase C18, 40° C., mobile phase 0.1% aqueous formic acid and acetonitrile, linear gradient 10% to 95% acetonitrile.

A word on the chromatographic logP: it is lipophilicity estimated from chromatographic retention. The low end stands for lower lipophilicity, the high end for higher lipophilicity. As to `CCCC(=O)c1ccc(Nc2nccc(-c3sc(CC)nc3C)n2)cc1` [Example 733, 1-(4-{[4-(2-ethyl-4-methyl-1,3-thiazol-5-yl)pyrimidin-2-yl]amino}phenyl)butan-1-one], the chromatographic logP was determined as 3.5.

For `CC(=O)c1cccc(Nc2nccc(-c3sc(-c4cccnc4)nc3C)n2)c1` [Example 734, 1-(3-{[4-(4-methyl-2-pyridin-3-yl-1,3-thiazol-5-yl)pyrimidin-2-yl]amino}phenyl)ethanone], the chromatographic logP came out at 2.56.

Molecule `COc1cc(Nc2nccc(-c3sc(N4CCOCC4)nc3C)n2)cc(OC)c1OC` [Example 735, 4-(4-methyl-2-morpholin-4-yl-1,3-thiazol-5-yl)-N-(3,4,5-trimethoxyphenyl)pyrimidine-2-amine] returned a chromatographic logP of 2.07.

The molecule `CC(=O)c1cccc(Nc2nccc(-c3sc(N4CCOCC4)nc3C)n2)c1` [Example 736, 1-(3-{[4-(4-methyl-2-morpholin-4-yl-1,3-thiazol-5-yl)pyrimidin-2-yl]amino}phenyl)ethanone] had a chromatographic logP of 2.16. The chromatographic logP values of the last two molecules are within 0.2 log units of each other.

In turn, `COCC(C)Nc1nc(C)c(-c2ccnc(Nc3ccc(N)cc3)n2)s1` (stereo not drawn) [Example 737, N-(4-{2-[(2-methoxy-1-methylethyl)amino]-4-methyl-1,3-thiazol-5-yl}pyrimidin-2-yl)benzene-1,4-diamine] registered a chromatographic logP of 1.68.

On to `COCCCNc1nc(C)c(-c2ccnc(Nc3cccc(C(C)=O)c3)n2)s1` [Example 738, 1-{3-[(4-{2-[(3-methoxypropyl)amino]-4-methyl-1,3-thiazol-5-yl}pyrimidin-2-yl)amino]phenyl}ethanone], for which the chromatographic logP was determined as 1.75.

Regarding `Cc1nc(N2CCOCC2)sc1-c1ccnc(Nc2cccc(Cl)c2)n1` [Example 745, N-(3-chlorophenyl)-4-(4-methyl-2-morpholin-4-yl-1,3-thiazol-5-yl)pyrimidine-2-amine], the chromatographic logP came to 2.99.

`CNc1nc(C)c(-c2ccnc(Nc3ccc(O)cc3)n2)s1` [Example 746, 4-({4-[4-methyl-2-(methylamine)-1,3-thiazol-5-yl]pyrimidin-2-yl}amino)phenol]: the logP is 1.11*.

Molecule `CCc1nc(C)c(-c2ccnc(Nc3cncc(C)c3)n2)s1` [Example 747, 4-(2-ethyl-4-methyl-1,3-thiazol-5-yl)-N-(5-methylpyridin-3-yl)pyrimidine-2-amine] registered a chromatographic logP of 1.41.

For the molecule `CCc1nc(C)c(-c2ccnc(Nc3ccc(N4CCCC4=O)cc3)n2)s1` [Example 748, 1-(4-{[4-(2-ethyl-4-methyl-1,3-thiazol-5-yl)pyrimidin-2-yl]amino}phenyl)pyrrolidin-2-one], the chromatographic logP was 2.24.

`Cc1nc(C)c(-c2ccnc(Nc3ccc(N4CCCC4=O)cc3)n2)s1` [Example 749, 1-(4-{[4-(2,4-dimethyl-1,3-thiazol-5-yl)pyrimidin-2-yl]amino}phenyl)pyrrolidin-2-one]: the chromatographic logP was found to be 1.99.

For `COCCNc1nc(C)c(-c2ccnc(Nc3ccc(F)c(C)c3)n2)s1` [Example 750, N-(4-fluoro-3-methylphenyl)-4-{2-[(2-methoxyethyl)amino]-4-methyl-1,3-thiazol-5-yl}pyrimidine-2-amine], the chromatographic logP worked out at 2.04.

Turning to `COCCNc1nc(C)c(-c2ccnc(Nc3ccc(C(C)=O)cc3)n2)s1` [Example 751, 1-{4-[(4-{2-[(2-methoxyethyl)amino]-4-methyl-1,3-thiazol-5-yl}pyrimidin-2-yl)amino]phenyl}ethanone], the chromatographic logP was 1.72.

Consider `COCCNc1nc(C)c(-c2ccnc(Nc3ccc(N4CCCC4=O)cc3)n2)s1` [Example 752, 1-{4-[(4-{2-[(2-methoxyethyl)amino]-4-methyl-1,3-thiazol-5-yl}pyrimidin-2-yl)amino]phenyl}pyrrolidin-2-one], for which the chromatographic logP amounted to 1.51.

Regarding `CNc1nc(C)c(-c2ccnc(Nc3ccc(OC(C)=O)cc3)n2)s1` [Example 754, 4-({4-[4-methyl-2-(methylamine)-1,3-thiazol-5-yl]pyrimidin-2-yl}amino)phenylacetate], the logP is 1.73*.

`CCc1nc(C)c(-c2ccnc(Nc3ccc(F)c(F)c3)n2)s1` [Example 755, N-(3,4-difluorophenyl)-4-(2-ethyl-4-methyl-1,3-thiazol-5-yl)pyrimidine-2-amine] gave a chromatographic logP of 3.44.

Molecule `Cc1nc(C)c(-c2ccnc(Nc3ccc(F)c(F)c3)n2)s1` [Example 756, N-(3,4-difluorophenyl)-4-(2,4-dimethyl-1,3-thiazol-5-yl)pyrimidine-2-amine] registered a chromatographic logP of 2.99.

The molecule `Cc1nc(C(F)F)c(-c2ccnc(Nc3cccc(Cl)c3)n2)s1` [Example 757, N-(3-chlorophenyl)-4-[4-(difluoromethyl)-2-methyl-1,3-thiazol-5-yl]pyrimidine-2-amine] displayed a chromatographic logP of 1.41.

`Cc1nc(C(F)F)c(-c2ccnc(Nc3ccc(CNC(=O)OC(C)(C)C)cc3)n2)s1` [Example 758, tert-butyl-[4-({4-[4-(difluoromethyl)-2-methyl-1,3-thiazol-5-yl]pyrimidin-2-yl}amino)benzyl]carbamate] registered a chromatographic logP of 3.2.

`CCc1nc(C)c(-c2ccnc(Nc3ccc(F)cc3F)n2)s1` [Example 760, N-(2,4-difluorophenyl)-4-(2-ethyl-4-methyl-1,3-thiazol-5-yl)pyrimidine-2-amine] registered a chromatographic logP of 3.27.

As for `Cc1nc(N(C)C)sc1-c1ccnc(Nc2ccc(N3CCCC3=O)cc2)n1` [Example 761, 1-[4-({4-[2-(dimethylamine)-4-methyl-1,3-thiazol-5-yl]pyrimidin-2-yl}amino)phenyl]pyrrolidin-2-one], the logP is recorded as 1.6*.

On to `CC(=O)Nc1cccc(Nc2nccc(-c3sc(N(C)C)nc3C)n2)c1` [Example 762, N-[3-({4-[2-(dimethylamine)-4-methyl-1,3-thiazol-5-yl]pyrimidin-2-yl}amino)phenyl]acetamide], for which the logP is given as 1.42*.

In turn, `COCc1nc(C)c(-c2ccnc(Nc3ccc(O)cc3)n2)s1` [Example 763, 4-({4-[2-(methoxymethyl)-4-methyl-1,3-thiazol-5-yl]pyrimidin-2-yl}amino)phenol] returned a chromatographic logP of 1.8.

As for `COCc1nc(C)c(-c2ccnc(Nc3cc(OC)cc(OC)c3)n2)s1` [Example 764, N-(3,5-dimethoxyphenyl)-4-[2-(methoxymethyl)-4-methyl-1,3-thiazol-5-yl]pyrimidine-2-amine], the chromatographic logP came out at 2.73.

In turn, `COCCCOC(=O)c1ccc(Nc2nccc(-c3sc(COC)nc3C)n2)cc1` [Example 765, 3-methoxypropyl-4-({4-[2-(methoxymethyl)-4-methyl-1,3-thiazol-5-yl]pyrimidin-2-yl}amino)benzoate] yielded a chromatographic logP of 2.63.

Consider `CCCc1nc(C)c(-c2ccnc(Nc3ccccc3)n2)s1` [Example 766, 4-(4-methyl-2-propyl-1,3-thiazol-5-yl)-N-phenylpyrimidine-2-amine], for which the chromatographic logP stood at 3.49.

On to `CCCc1nc(C)c(-c2ccnc(Nc3cccc(C(C)=O)c3)n2)s1` [Example 767, 1-(3-{[4-(4-methyl-2-propyl-1,3-thiazol-5-yl)pyrimidin-2-yl]amino}phenyl)ethanone], for which the chromatographic logP came out at 3.04.

`CCCc1nc(C)c(-c2ccnc(Nc3cc(OC)c(OC)c(OC)c3)n2)s1` [Example 768, 4-(4-methyl-2-propyl-1,3-thiazol-5-yl)-N-(3,4,5-trimethoxyphenyl)pyrimidine-2-amine] displayed a chromatographic logP of 2.93.

With `CC(=O)c1ccc(Nc2nccc(-c3sc(N(C)C)nc3C(F)(F)F)n2)cc1` [Example 769, 1-[4-({4-[2-(dimethylamine)-4-(trifluoromethyl)-1,3-thiazol-5-yl]pyrimidin-2-yl}amino)phenyl]ethanone], the logP was 3.44*.

For `CN(C)c1nc(C(F)(F)F)c(-c2ccnc(Nc3ccc(N4CCCC4=O)cc3)n2)s1` [Example 770, 1-[4-({4-[2-(dimethylamine)-4-(trifluoromethyl)-1,3-thiazol-5-yl]pyrimidin-2-yl}amino)phenyl]pyrrolidin-2-one], the logP is 2.99*.

In turn, `COCC(C)Nc1nc(C)c(-c2ccnc(Nc3cccc(N4CCCC4=O)c3)n2)s1` (stereo not drawn) [Example 772, 1-{3-[(4-{2-[(2-methoxy-1-methylethyl)amino]-4-methyl-1,3-thiazol-5-yl}pyrimidin-2-yl)amino]phenyl}pyrrolidin-2-one] returned a chromatographic logP of 1.68.

In the case of `Cc1nc(N(C)C)sc1-c1ccnc(Nc2ccc3c(c2)OC(F)(F)C(F)(F)O3)n1` [Example 774, 4-[2-(dimethylamine)-4-methyl-1,3-thiazol-5-yl]-N-(2,2,3,3-tetrafluoro-2,3-dihydro-1,4-benzodioxin-6-yl)pyrimidine-2-amine], the logP is 3.6*.

`CN(C)c1nc(C(F)(F)F)c(-c2ccnc(Nc3cccc(N4CCCC4=O)c3)n2)s1` [Example 775, 1-[3-({4-[2-(dimethylamine)-4-(trifluoromethyl)-1,3-thiazol-5-yl]pyrimidin-2-yl}amino)phenyl]pyrrolidin-2-one]: the logP was 3.07*.

Take `CN(C)c1nc(C(F)(F)F)c(-c2ccnc(Nc3ccc(F)cc3)n2)s1` [Example 777, 4-[2-(dimethylamine)-4-(trifluoromethyl)-1,3-thiazol-5-yl]-N-(4-fluorophenyl)pyrimidine-2-amine]: the logP is given as 3.96*.

Take `CN(C)c1nc(C(F)(F)F)c(-c2ccnc(Nc3ccc(I)cc3)n2)s1` [Example 778, 4-[2-(dimethylamine)-4-(trifluoromethyl)-1,3-thiazol-5-yl]-N-(4-iodophenyl)pyrimidine-2-amine]: the logP is given as 4.88*.

On to `CN(C)c1nc(C(F)(F)F)c(-c2ccnc(Nc3ccc4c(c3)OC(F)(F)O4)n2)s1` [Example 779, N-(2,2-difluoro-1,3-benzodioxol-5-yl)-4-[2-(dimethylamine)-4-(trifluoromethyl)-1,3-thiazol-5-yl]pyrimidine-2-amine], for which the logP is 4.72*.
